Results on 23 compounds are retold here after publication PMC12195982, “Design, Synthesis, and In Vitro Evaluation of 4-(Arylchalcogenyl)methyl)-1H-1,2,3-triazol-1-yl-menadione: Exploring Their Potential Against Tuberculosis” (Pharmaceuticals, 2025).

≈ marks a conversion by molar mass, not a printed value. Where two headings read alike, the source gives them in different places. A value given as a limit tells only on which side of the number the result lay.

The test system of data set [1] is Mtb strain H37Rv ATCC 27294. Put plainly: Microplate Alamar Blue Assay (MABA), susceptible strain. To be noted: Mycobacterium tuberculosis. The format is cell-based.
Data set [2] concerns Mtb. As to conditions: cited from earlier work.
Data set [3] deals with VERO cell line. The format is cell-based. As to conditions: for cytotoxicity: MTT method, VERO cell line. The method, then: First, a VERO cell line suspension was prepared and distributed into each of the 96 wells of the culture plate, which was then incubated for 48 h to allow the cells to adhere. After this period, the suspension medium was discarded, and the cells were exposed to the substances under study, leaving them in the wells for a period of between 24 and 48 h. After this, the substance was discarded, and the cells were washed with a buffer, with MTT being added, followed by a 3 h incubation. After this period, the MTT was discarded, and Dimethyl sulfoxide (DMSO) was added to solubilize the formazan crystals generated. Finally, the absorbance of each well of the plate was obtained using a microplate spectrophotometer. The absorbance was quantified based on the readings that the equipment makes, based on the different intensities of the purple color in the wells of the plate; the more purple the well, the more viable cells there are.

Data set [4] has as its target protein kinase B (PknB). To be noted: cited from earlier work.
The mark [5] stands for this setting: Mtb H37Rv, strain sensitive to all first- and second-line drugs, MABA, triplicate, read-out: MIC.
Setting [6] is: as quoted in sections 2.2 and 2.3, strain not stated, read-out: MIC (antimycobacterial activity).

`NNC(=O)c1ccncc1` [INH, isoniazid, reference compound]: the MIC in data set [1] (setting [5]) is 0.12 µg/mL (≈ 0.875 µM).

Take `CC1=C(Cn2cc(CSc3ccccc3C)nn2)C(=O)c2ccccc2C1=O` [Compound 10d, 2-methyl-3-((4-((o-methylphenylthiol)methyl)-1H-1,2,3-triazolyl)methyl)naphthalene-1,4-dione]: in data set [1] (setting [5]), the minimal inhibitory concentration (MIC) is above 100 µg/mL.

As to `O=C1NC(c2ccc(OCc3cn(-c4ccc(F)cc4F)nn3)cc2)Nc2ccccc21` (centres unmarked) [Compound 4], in data set [2] (anti-TB action), the MIC is 0.78 µg/mL (≈ 1.8 µM). `O=C1NC(c2ccc(OCc3cn(-c4ccc(F)c(F)c4)nn3)cc2)Nc2ccccc21` (centres unmarked) [Compound 5]: the minimum inhibitory concentration (MIC) in data set [2] (anti-TB action) is 3.12 µg/mL (≈ 7.2 µM). `CC1=C(Cn2cc(CSc3ccccc3)nn2)C(=O)c2ccccc2C1=O` [Compound 10a, 2-methyl-3-((4-((phenylthiol)methyl)-1H-1,2,3-triazolyl)methyl)naphthalene-1,4-dione]: in data set [1] (setting [5]), the MIC stood at 100 µg/mL (≈ 267 µM).

As to `CC1=C(C(c2ccc(C)cc2)n2cc(C[Se]c3ccccc3)nn2)C(=O)c2ccccc2C1=O` (centres unmarked) [Compound 9h, 2-methyl-3-((4-((phenylselanyl)methyl)-1H-1,2,3-triazolyl)(p-methylphenyl)methyl) naphthalene-1,4-dione], in data set [3], the cytotoxicity entry is recorded as “minimal cytotoxicity” and the “toxicity at concentrations of up to 100 µg/mL” value (shortened to “toxicity at concentrations”) is “non-toxic”. Also, in data set [1] (setting [5]), the minimal inhibitory concentration (MIC) was 24.9 µg/mL (≈ 48.7 µM). On to `CC1=C(Cn2cc(C[Se]c3ccccc3)nn2)C(=O)c2ccccc2C1=O` [Compound 9a, 2-methyl-3-((4-((phenylselanyl)methyl)-1H-1,2,3-triazolyl)methyl)naphthalene-1,4-dione], for which, in data set [3], the cytotoxicity entry is on record as “minimal cytotoxicity”. For the same compound, in data set [3], the “toxicity at concentrations” value is given as “non-toxic”. Further, the figures for the minimal inhibitory concentration (MIC) in data set [1] (setting [5]) and in data set [1] (setting [6]) were 6.23 µg/mL (≈ 14.8 µM) and 6.76 µg/mL (≈ 16 µM), respectively. For the compound `CC1=C(Cn2cc(CSc3ccc(Cl)cc3)nn2)C(=O)c2ccccc2C1=O` [Compound 10b, 2-((4-(((4-chlorophenyl)thiol)methyl)-1H-1,2,3-triazolyl)methyl)-3-methylnaphthalene-1,4-dione], the MIC in data set [1] (setting [5]) was above 100 µg/mL.

In the case of `O=C1c2c(O)ccc(O)c2C(=O)c2c(NCCNCCO)ccc(NCCNCCO)c21` [co-crystallized ligand, 1,4-dihydroxy-5,8-bis({2-[(2-hydroxyethyl)amino]ethyl}amino)-9,10-anthracenedione], the half-inhibitory concentration (IC50) in data set [4] is 800 nM. Turning to `CC1=C(C(c2ccccc2)n2cc(CSc3ccccc3)nn2)C(=O)c2ccccc2C1=O` (centres unmarked) [Compound 10g, 2-methyl-3-(phenyl(4-((phenylthiol)methyl)-1H-1,2,3-triazolyl)methyl)naphthalene-1,4-dione], the MIC in data set [1] (setting [5]) is above 100 µg/mL. Take `NC(=O)c1cnccn1` [PZA, pyrazinamide, reference compound]: the MIC in data set [1] (setting [5]) was 100 µg/mL (≈ 813 µM). Consider `CC1=C(Cn2cc(C[Se]c3ccc(Cl)cc3)nn2)C(=O)c2ccccc2C1=O` [Compound 9b, 2-((4-(((4-chlorophenyl)selanyl)methyl)-1H-1,2,3-triazolyl)methyl)-3-methylnaphthalene-1,4-dione], for which, in data set [3], the cytotoxicity entry is “minimal cytotoxicity” and the “toxicity at concentrations” value is reported as “non-toxic”. The MIC in data set [1] (setting [5]) came to 3.2 µg/mL (≈ 7.01 µM). Moreover, the MIC in data set [1] (setting [6]) worked out at 3.2 µg/mL (≈ 7.01 µM). `C/C(=N/N=C1/NC(=O)CS1)c1ccc(-c2ccccc2)cc1` [Compound 2]: the MIC in data set [2] (anti-TB activity) is listed as 12.5 µg/mL (≈ 40.4 µM).

Take `CC1=C(Cn2cc(C[Se]c3c(C)cc(C)cc3C)nn2)C(=O)c2ccccc2C1=O` [Compound 9d, 2-((4-((2,4,6-trimethyl-phenylselanyl)methyl)-1H-1,2,3-triazolyl)methyl)-3-methylnaphthalene-1,4-dione]: the minimum inhibitory concentration (MIC) in data set [1] (setting [5]) is above 99.9 µg/mL.

In the case of `CC1=C(Cn2cc(C[Se]c3ccc4ccccc4c3)nn2)C(=O)c2ccccc2C1=O` [Compound 9e, 2-methyl-3-((4-((naphthalenylselanyl)methyl)-1H-1,2,3-triazolyl)methyl)naphthalene-1,4-dione], the MIC in data set [1] (setting [5]) stood at 99.9 µg/mL (≈ 211 µM). For `CC1=C(Cn2cc(CSCc3ccco3)nn2)C(=O)c2ccccc2C1=O` [Compound 10e, 2-((4-(((furan-2-ylmethyl)thiol)methyl)-1H-1,2,3-triazolyl)methyl)-3-methylnaphthalene-1,4-dione], the MIC in data set [1] (setting [5]) was above 100 µg/mL. On the same count and under the same terms, next, `CC1=C(Cn2cc(CSc3ccc(C)cc3)nn2)C(=O)c2ccccc2C1=O` [Compound 10c, 2-methyl-3-((4-((p-methylphenylthiol)methyl)-1H-1,2,3-triazolyl)methyl)naphthalene-1,4-dione]: above 100 µg/mL.

Take `C=CCC1[Se]c2ccccc2C1=O` (centres unmarked) [Compound 1]: the minimum inhibitory concentration (MIC) in data set [2] (anti-TB activity) is given as 12.5 µg/mL (≈ 52.7 µM). With `CC1=C(C(C)n2cc(C[Se]c3ccccc3)nn2)C(=O)c2ccccc2C1=O` (centres unmarked) [Compound 9f, 2-methyl-3-(1-(4-((phenylselanyl)methyl)-1H-1,2,3-triazolyl)ethyl)naphthalene-1,4-dione], the figures for the MIC in data set [1] (setting [5]) and in data set [1] (setting [6]) were 6.23 µg/mL (≈ 14.3 µM) and above 43.6 µg/mL, respectively. Consider `CC1=C(Cn2cc(C[Se]c3cccc(C(F)(F)F)c3)nn2)C(=O)c2ccccc2C1=O` [Compound 9c], for which the MIC in data set [1] (setting [5]) is at most 49.9 µg/mL. For `CC1=C(C(c2ccccc2)n2cc(C[Se]c3ccccc3)nn2)C(=O)c2ccccc2C1=O` (centres unmarked) [Compound 9g, 2-methyl-3-(phenyl(4-((phenylselanyl)methyl)-1H-1,2,3-triazolyl)methyl)naphthalene-1,4-dione], in data set [3], the cytotoxicity result is given as “minimal cytotoxicity” and the “toxicity at concentrations” value is given as “non-toxic”. For the same compound, the minimum inhibitory concentration (MIC) in data set [1] (setting [5]) amounted to 12.5 µg/mL (≈ 25.1 µM). Besides, the MIC in data set [1] (setting [6]) turned out to be 3.12 µg/mL (≈ 6.26 µM). `CC1=C(C(c2ccc(C)cc2)n2cc(CSc3ccccc3)nn2)C(=O)c2ccccc2C1=O` (centres unmarked) [Compound 10h, 2-methyl-3-((4-((phenylthiol)methyl)-1H-1,2,3-triazolyl)(p-methylphenyl)methyl)naphthalene-1,4-dione]: the MIC in data set [1] (setting [5]) is above 100 µg/mL. Still for that read-out and setting: to `CC1=C(C(C)n2cc(CSc3ccccc3)nn2)C(=O)c2ccccc2C1=O` (centres unmarked) [Compound 10f, 2-methyl-3-(1-(4-((phenylthiol)methyl)-1H-1,2,3-triazolyl)ethyl)naphthalene-1,4-dione] belongs 100 µg/mL (≈ 257 µM).
